One test deals with EBC1. Description: Inhibition of cell viability (MTS), EBC1. In kind it is cell-based. The note with it: 96 hours incubation. As to the method: (§1) Cells were maintained at 37° C. in a humidified atmosphere containing 5%-8% CO2 following the instructions of the supplier (American Type Culture Collection (Rockville, Md.)). Inhibition of cell viability was determined for a panel of tumor cell lines (MKN45, EBC1 and A549), using the soluble tetrazolium salt, MTS (Promega, Madison, Wis.). Cells were seeded at 2,000-7,500 cells/well in 96-well tissue culture plates and were allowed to attach for approximately 24 hours prior to addition of compounds or DMSO vehicle. […] Cells were treated in duplicate with test compounds. Compounds were serially diluted (1:2.5) from column 1 to 11 and column 12 contained DMSO vehicle. Compounds were diluted into cell growth medium then compound solution was added to cells. Equal amounts of DMSO were added to cells (final concentration is 0.5%). After background correction and normalization against DMSO-treated cells, EC50 values were calculated using non-linear curve-fitting of the cell viability as a function of compound concentration. The MKN45 and EBC1 cell lines contain high levels of phospho-Met and are dependent on cMET for proliferation, whereas the A549 line is used as negative control.
(§2) EC50 values may be calculated by non-linear curve fitting of the compound concentrations and fluorescence intensities to the standard EC50 equation.

The subject of a further test is A549. Put plainly: Inhibition of cell viability (MTS), A549 (negative control line). The following applies: A549 cells (negative control), 96 hours incubation. It counts as cell-based. How it is done: as §1, §2
In a further test the test system is MKN45. Description: Inhibition of cell viability (MTS), MKN45. The following applies: 96 hours incubation. It counts as cell-based. As to the method: as §1, §2
In test [1] the target is T1, cMET enzyme (amino acids 1023-1360) (Homo sapiens, UniProt P08581).
T1 construct: The cMET enzyme (amino acids 1023-1360) nominally at 24 μM was held at −80° C. until use; His tag (N, cleaved yes); made in house; host or cells: Sf9 cells
Description: Determination of inhibition of cMET (capillary electrophoresis, phosphorylated peptide product). It counts as biochemical. The note with it: 1.2 nM cMET, 50 μM ATP, 2 μM FL-2 peptide, 2 hours room temperature. As to the method:
The inhibitory property of a compound relative to cMET catalysis was determined by use of capillary electrophoresis with fluorescence quantification of a phosphorylated peptide product for cMET. The cMET enzyme (amino acids 1023-1360) nominally at 24 μM was held at −80° C. until use, in a buffer containing 25 mM Tris-HCl pH 8.5, 150 mM NaCl, 3 mM DTT and 10% glycerol. […] Following purification, the tag was removed and enzyme concentrated. […] To activate the enzyme fully, frozen cMET was thawed quickly and activated with the addition of assay buffer (50 mM HEPES pH 7.5, 10 mM NaCl, 10 mM MgCl2, 0.01% Brij® 35), 1.25 mM ATP, 5 mM MgCl2 and 5 mM DTT at a cMET concentration of 2.4 μM followed by a 30 minute incubation at room temperature. […] Next, cMET enzyme (1.2 nM final) was added and the system incubated at room temperature for 20 minutes. Catalysis was initiated by the addition of ATP (50 μM final). Assays were incubated at room temperature for 2 hours then quenched by the addition of EDTA. Phosphorylated peptide product was quantified by monitoring fluorescence during capillary electrophoresis with Caliper LifeSciences LabChip 3000 under the following settings: base pressure=−0.1 psi, screen pressure=−1.2 psi, downstream voltage=−500 V, upstream voltage=−2300 V, chip type=TC372. The elution buffer was identical to the assay buffer except for the absence of DTT, FL-2 and ATP and the addition of 0.1% coating reagent (Caliper). […] Peak height was quantified and used to determine enzyme velocities.
IC50 values were calculated by non-linear least squares curve fitting of the standard IC50 equation to background-corrected cMET velocity versus compound concentration.

The mark [2] stands for this setting: Homo sapiens, EBC-1, 96 h, EBC1 cells.
[3] abbreviates: Homo sapiens, MKN-45, 96 h, MKN45 cells.

Counter-ions that a name gives are not always drawn.

This is an account of results in US8178534B2, “cMET inhibitors” (Takeda Pharmaceutical Company Limited, priority 2008, dated 2012).

By EC50 is commonly meant the midpoint of the concentration-response curve. A high value points to lower potency in that assay. Broadly, the IC50 is the concentration at which inhibition is half-maximal. Read a low IC50 as higher potency.

T1 sequence (P08581 1023-1360): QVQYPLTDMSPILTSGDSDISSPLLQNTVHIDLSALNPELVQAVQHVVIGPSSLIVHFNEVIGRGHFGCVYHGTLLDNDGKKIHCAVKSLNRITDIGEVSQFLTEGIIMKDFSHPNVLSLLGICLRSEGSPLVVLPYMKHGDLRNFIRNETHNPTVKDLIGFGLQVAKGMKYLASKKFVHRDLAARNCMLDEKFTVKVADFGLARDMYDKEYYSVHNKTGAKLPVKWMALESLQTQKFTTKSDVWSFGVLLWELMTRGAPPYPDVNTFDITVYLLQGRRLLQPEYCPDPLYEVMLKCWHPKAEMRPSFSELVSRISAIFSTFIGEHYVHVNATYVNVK

`O=C(Nc1cn2nc(C(F)(F)c3nnc4ccc(-c5cnoc5)cn34)ccc2n1)C1CC1` [Compound 46, N-(6-(difluoro(6-(isoxazol-4-yl)-[1,2,4]triazolo[4,3-a]pyridin-3-yl)methyl)imidazo[1,2-b]pyridazin-2-yl)cyclopropanecarboxamide]: the concentration giving a half-maximal response (EC50) in the test on EBC1 (setting [2]) is 60 to 100 nM; in the test with A549 (Homo sapiens, A549, 96 h) it was over 50000 nM; in the test with MKN45 (setting [3]), 60 to 100 nM. Also, the IC50 in test [1] lay within 30 to 59 nM.

Turning to `COc1ccc(-c2ccc3nnc(C(F)(F)c4ccc5nc(NC(=O)C6CC6)cn5n4)n3c2)cc1` [Compound 75, N-(6-(difluoro(6-(4-methoxyphenyl)-[1,2,4]triazolo[4,3-a]pyridin-3-yl)methyl)imidazo[1,2-b]pyridazin-2-yl)cyclopropanecarboxamide], the EC50 is under 30 nM in the test on EBC1 (setting [2]); 8000 to 25000 nM in the test with A549 (Homo sapiens, A549, 96 h); under 30 nM in the test with MKN45 (setting [3]). Moreover, the half-inhibitory concentration (IC50) in test [1] is under 30 nM.

As for `CNC(=O)c1ccc(-c2ccc3nnc(Sc4ccc5nc(NC(=O)C6CC6)cn5n4)n3c2)cc1Cl` [Compound 28, 2-chloro-4-(3-(2-(cyclopropanecarboxamido)imidazo[1,2-b]pyridazin-6-ylthio)-[1,2,4]triazolo[4,3-a]pyridin-6-yl)-N-methylbenzamide], the half-maximal effective concentration (EC50) with EBC1 (setting [2]) is under 35 nM; with A549 (Homo sapiens, A549, 96 h), over 50000 nM; in the test on MKN45 (setting [3]), under 100 nM. The same compound had an IC50 in test [1] of under 30 nM.

Take `O=C(Nc1cn2nc(Sc3nnc4ccc(-c5ccc(N6CCNCC6)cc5)cn34)ccc2n1)C1CC1` [Compound 36, N-(6-(6-(4-(piperazin-1-yl)phenyl)-[1,2,4]triazolo[4,3-a]pyridin-3-ylthio)imidazo[1,2-b]pyridazin-2-yl)cyclopropanecarboxamide]: the EC50 with EBC1 (setting [2]) was 35 to 99 nM; in the test on A549 (Homo sapiens, A549, 96 h) it was over 50000 nM; in the test with MKN45 (setting [3]), 250 to 630 nM. This compound also came in with a half-maximal inhibitory concentration (IC50) in test [1] of under 30 nM.

On to `O=C(O)c1ccc2nnc(Sc3ccc4nc(NC(=O)C5CC5)cn4n3)n2c1` [Compound 33, 3-(2-(cyclopropanecarboxamido)imidazo[1,2-b]pyridazin-6-ylthio)-[1,2,4]triazolo[4,3-a]pyridine-6-carboxylic acid], for which the EC50 was over 200 nM in the test with EBC1 (Homo sapiens, EBC-1, EBC1 cells); over 50000 nM with A549 (Homo sapiens); over 630 nM in the test on MKN45 (Homo sapiens, MKN-45, MKN45 cells). The same compound returned an IC50 in test [1] of over 100 nM.

As to `O=C(Nc1cn2nc(C(F)(F)c3nnc4ccc(-c5cnn(CCO)c5)cn34)ccc2n1)C1CC1` [Compound 47, N-(6-(difluoro(6-(1-(2-hydroxyethyl)-1H-pyrazol-4-yl)-[1,2,4]triazolo[4,3-a]pyridin-3-yl)methyl)imidazo[1,2-b]pyridazin-2-yl)cyclopropanecarboxamide], the EC50 in the test with EBC1 (setting [2]) was under 30 nM; with A549 (Homo sapiens, A549, 96 h) it was over 50000 nM; in the test on MKN45 (setting [3]), under 30 nM. Moreover, the IC50 in test [1] was under 30 nM.

Consider `O=C(Nc1cn2nc(Sc3nnc4ccc(-c5ccc(N6CCOCC6)nc5)cn34)ccc2n1)C1CC1` [Compound 103, N-(6-(6-(6-morpholinopyridin-3-yl)-[1,2,4]triazolo[4,3-a]pyridin-3-ylthio)imidazo[1,2-b]pyridazin-2-yl)cyclopropanecarboxamide], for which the EC50 was under 30 nM in the test on EBC1 (setting [2]); over 50000 nM in the test on A549 (Homo sapiens, A549, 96 h); 30 to 59 nM in the test on MKN45 (setting [3]). The same compound registered an IC50 in test [1] of under 30 nM.

For the compound `CC(c1ccc2nc(NC(=O)C3CC3)cn2n1)c1nnc2ccc(-c3cnn(C)c3)cn12` (centres unmarked) [49 (HCl Salt), N-(6-(1-(6-(1-methyl-1H-pyrazol-4-yl)-[1,2,4]triazolo[4,3-a]pyridin-3-yl)ethyl)imidazo[1,2-b]pyridazin-2-yl)cyclopropanecarboxamide], the EC50 is under 30 nM in the test with EBC1 (setting [2]), 8000 to 25000 nM in the test on A549 and 30 to 59 nM with MKN45 (setting [3]). The compound also showed an IC50 in test [1] of under 30 nM.

`O=C(Nc1cn2nc(Sc3nnc4ccc(-c5cnn(CCO)c5)cn34)ccc2n1)C1CC1` [Compound 32]: the concentration for a half-maximal effect (EC50) in the test on EBC1 (setting [2]) was 35 to 99 nM; in the test with A549 (Homo sapiens, A549, 96 h), over 50000 nM; in the test with MKN45 (setting [3]), 100 to 249 nM. In test [1], this compound yielded an IC50 of under 30 nM.

For `O=C(Nc1cn2nc(Sc3nnc4ccc(-c5cnc(NCCCO)nc5)cn34)ccc2n1)C1CC1` [Compound 109, N-(6-(6-(2-(3-hydroxypropylamino)pyrimidin-5-yl)-[1,2,4]triazolo[4,3-a]pyridin-3-ylthio)imidazo[1,2-b]pyridazin-2-yl)cyclopropanecarboxamide], the EC50 with EBC1 (setting [2]) lay in the range of 8000 to 25000 nM; with A549 (Homo sapiens, A549, 96 h) it was 8000 to 25000 nM; with MKN45 (setting [3]), 8000 to 25000 nM. The compound also displayed an IC50 in test [1] of 250 to 630 nM.

Turning to `CCS(=O)(=O)c1cccc(-c2ccc3nnn(Cc4ccc5nc(NC(=O)C6CC6)cn5n4)c3c2)c1` [Compound 18], the EC50 is 100 to 199 nM in the test with EBC1 (setting [2]); over 19500 nM in the test with A549 (Homo sapiens, A549, 96 h); 100 to 249 nM with MKN45 (setting [3]). Further, in test [1], the half-maximal inhibitory concentration (IC50) lay in the range of 30 to 59 nM.

`COc1ccc(-c2ccc3nnc(C(C)c4ccc5nc(NC(=O)C6CC6)cn5n4)n3c2)cc1` (centres unmarked) [Compound 56, N-(6-(1-(6-(4-methoxyphenyl)-[1,2,4]triazolo[4,3-a]pyridin-3-yl)ethyl)imidazo[1,2-b]pyridazin-2-yl)cyclopropanecarboxamide]: the EC50 in the test with EBC1 (setting [2]) is under 30 nM; in the test with A549 (Homo sapiens, A549, 96 h), over 50000 nM; with MKN45 (setting [3]), under 30 nM. Also, in test [1], the IC50 is under 30 nM.

In the case of `CC(c1ccc2nc(NC(=O)C3CC3)cn2n1)c1nnc2ccc(-c3ccc(S(C)(=O)=O)cc3)cn12` (centres unmarked) [Compound 60, N-(6-(1-(6-(4-(methylsulfonyl)phenyl)-[1,2,4]triazolo[4,3-a]pyridin-3-yl)ethyl)imidazo[1,2-b]pyridazin-2-yl)cyclopropanecarboxamide], the concentration for a half-maximal effect (EC50) was 60 to 100 nM in the test with EBC1 (setting [2]); over 50000 nM in the test on A549 (Homo sapiens, A549, 96 h); 60 to 100 nM with MKN45 (setting [3]). In test [1], this compound had an IC50 of under 30 nM.

Regarding `COCCOc1ccc(-c2ccc3nnc(C(F)(F)c4ccc5nc(NC(=O)C6CC6)cn5n4)n3c2)cc1` [Compound 91, N-(6-(difluoro(6-(4-(2-methoxyethoxy)phenyl)-[1,2,4]triazolo[4,3-a]pyridin-3-yl)methyl)imidazo[1,2-b]pyridazin-2-yl)cyclopropanecarboxamide], the concentration giving a half-maximal response (EC50) in the test on EBC1 (setting [2]) is under 30 nM; with A549 (Homo sapiens, A549, 96 h), over 50000 nM; in the test with MKN45 (setting [3]), under 30 nM. The same compound returned an IC50 in test [1] of under 30 nM.

`O=C(Nc1cn2nc(Sc3nnc4ccc(Cl)cn34)ccc2n1)C1CC1` [Compound 9, N-(6-(6-chloro-[1,2,4]triazolo[4,3-a]pyridin-3-ylthio)imidazo[1,2-b]pyridazin-2-yl)cyclopropanecarboxamide]: the concentration for a half-maximal effect (EC50) in the test on EBC1 (setting [2]) is 100 to 199 nM; in the test on A549 (Homo sapiens, A549, 96 h), 8000 to 25000 nM; in the test on MKN45 (setting [3]), 250 to 630 nM. The half-inhibitory concentration (IC50) in test [1] lay within 60 to 100 nM.

As for `COc1ccc(-c2ccc3nnc(C(C)c4ccc5nc(NC(=O)C6CC6)cn5n4)n3c2)cc1C` (centres unmarked) [Compound 70, N-(6-(1-(6-(4-methoxy-3-methylphenyl)-[1,2,4]triazolo[4,3-a]pyridin-3-yl)ethyl)imidazo[1,2-b]pyridazin-2-yl)cyclopropanecarboxamide], the half-maximal effective concentration (EC50) in the test on EBC1 (setting [2]) is under 30 nM; in the test on A549 (Homo sapiens, A549, 96 h) it was over 50000 nM; with MKN45 (setting [3]), under 30 nM. The compound further showed an IC50 in test [1] of under 30 nM.

For `O=C(Nc1cn2nc(Sc3nnc4ccccn34)ccc2n1)C1CC1` [3 (free base), N-(6-([1,2,4]Triazolo[4,3-a]pyridin-3-ylthio)imidazo[1,2-b]pyridazin-2-yl)cyclopropanecarboxamide], the concentration giving a half-maximal response (EC50) in the test on EBC1 (EBC1 cells) lay in the range of 60 to 100 nM; in the test on A549, 8000 to 25000 nM; in the test on MKN45 (MKN45 cells) it was 100 to 199 nM. This compound came in with an IC50 in test [1] of over 100 nM.
